These results are taken from patent US7329726B2, “Physiologically active peptides” (Seiren Kabushiki Kaisha, priority 2004, dated 2008).

Read-outs that look alike come from different tables or passages of the source. Peptide text beside a SMILES is read from it.

Assay [1] has as its system insect cell Sf9. The class given is cell-based. The following applies: Sf9 cells; for Survival rate (%) Average ± Standard deviation (n = 4): Sf900IISFM medium without FCS, 5 days at 27.5° C. The procedure: Cell death-preventing activity of the peptide according to the present invention was evaluated using an insect cell Sf9 (Invitrogen).
The Sf9 cell is usually subcultured using an Sf900IISFM medium (Invistrogen) containing 10% FCS (fetal calf serum) (Sigma) at a temperature of 27.5° C. It is known that marked cell death occurs when the Sf9 cells thus cultured are abruptly transferred into a medium without FCS and thus exposed to drastic serum-deprived conditions. In this test, cells to be tested were exposed under such drastic serum-deprived conditions and their survival rate was measured to evaluate cell death-preventing effect of the peptide according to the present invention.
First, Sf9 cells subcultured using a medium supplemented with 10% FCS were centrifuged at 1000 rpm at 4° C. for 5 minutes. Next, the supernatant was removed and the precipitated cells were suspended in an Sf900IISFM medium without FCS. The suspension was recentrifuged at 1000 rpm at 4° C. for 5 minutes to wash the cells.
Next, in order to expose the cells under drastic serum-deprived conditions, the washed cells were resuspended in an Sf900IISFM medium without FCS and a cell suspension having a cell density of 5×10^5 cells/ml was prepared.
On the other hand, peptide A (the present invention) was dissolved in an Sf900IISFM medium without FCS and peptide solutions were prepared at peptide concentrations of 0.2 mg/ml, 0.6 mg/ml, and 2.0 mg/ml. The peptide solutions thus prepared were sterilized by filtration.
Next, 50 μl of the abovementioned cell suspension and 50 μl each of the abovementioned peptide solutions were dispensed on a 96-well cell culture plate at a final cell density of 2.5×10^5 cells/ml and final peptide concentrations of 0.1 mg/ml, 0.3 mg/ml, and 1.0 mg/ml, respectively. This culture plate was incubated at 27.5° C. for 5 days.
After 5 days of incubation, cells were stained with Trypan blue and the number of dead cells and the number of viable cells were counted to obtain the survival rate. Here the survival rate means the ratio of the viable cell count to the total cell count upon cell counting.
As a comparative example, an experiment was carried out in the same manner as described above for peptide A, except that peptide B was used in place of peptide A (the present invention), to obtain the survival rate.
As another comparative example, an experiment was carried out in the same manner as described above for peptide A, except that a bovine serum albumin (Sigma) solution was used in place of the abovementioned peptide solutions, to obtain the survival rate.

The test system of assay [2] is insect cell Sf9. As to the kind of experiment: Evaluation Test 2: Cell growth-promoting activity (MTT assay under serum-deprived conditions). The class given is cell-based. The following applies: Sf9 cells; for OD 595 nm Average ± Standard deviation (n = 4): medium without FCS, 9 days at 27.5° C. The procedure:
Cell growth-promoting activity of the peptide according to the present invention was evaluated using an insect cell Sf9 (Invitrogen).
It is known that marked cell death as shown in Evaluation Test 1 and thereafter a decrease in cell growth occur when the Sf9 cells are exposed to drastic serum-deprived conditions. In this test, the cells to be tested were exposed under such drastic serum-deprived conditions and their growth ability was measured to evaluate cell growth-promoting effect of the peptide according to the present invention.
A cell suspension was prepared in the same manner as in Evaluation test 1, and peptide solutions were prepared using peptide A (the present invention) as in Evaluation test 1. Next, 50 μl of this cell suspension and 50 μl each of the peptide solutions were dispensed on a 96-well cell culture plate in the same manner as in Evaluation test 1, and this culture plate was incubated at 27.5° C. for 9 days.
After 9 days of incubation, cell growth-promoting effect was evaluated by the MTT assay.
Specifically, to each well of the 96-well plate incubated for 9 days was added 5 μl of 5 mg/ml 3-(4,5-dimethyl-2-thiazolyl)-2,5-diphenyl tetrazolium bromide (MTT) in phosphate-buffered physiological saline, and the plate was incubated at 27.5° C. for further 5 hours. During this culture process, MTT is transformed into insoluble formazan in viable cells. After 5 hours of incubation, cell culture supernatant was completely removed and then 200 μl each of a 10 mM […] solution with 10% SDS was added to each well to completely dissolve the cells and formazan in the cells. Next, the absorption coefficient at 595 nm was measured for each well using a microplate reader.
As a comparative example, an experiment was carried out in the same manner as the one with the abovementioned peptide A, except that peptide B was used in place of peptide A (the present invention), and then the absorption coefficient at 595 nm was measured for each well.
As another comparative example, an experiment was carried out in the same manner as described above for peptide A, except that a bovine serum albumin (Sigma) solution was used in place of the abovementioned peptide solutions, and then the absorption coefficient at 595 nm was measured for each well.
Here the value of the absorption coefficient in the NTT assay increases with an increase in viable cell density.

Where [3] appears, read: sample concentration 1.0 mg/ml, listed as peptide A.

“bovine serum albumin [reference compound]”: the “Survival rate (%) Average ± Standard deviation (n = 4)” value in assay [1] (sample concentration 0.3 mg/ml) is recorded as 62.5 ± 3.0%. Besides, in assay [2] (sample concentration 0.3 mg/ml), the “OD 595 nm Average ± Standard deviation (n = 4)” value came out at 0.90 ± 0.03.
With `C[C@@H](O)[C@H](NC(=O)[C@H](CO)NC(=O)[C@H](CO)NC(=O)CNC(=O)CNC(=O)[C@@H](N)CO)C(=O)N[C@@H](Cc1ccc(O)cc1)C(=O)NCC(=O)N[C@@H](Cc1ccc(O)cc1)C(=O)N[C@@H](CO)C(=O)O` [Peptide A] (H-SGGSSTYGYS-OH; N-terminus assumed), the “Survival rate (%) Average ± Standard deviation (n = 4)” value is on record as 28.5 ± 3.4% in assay [1] (sample concentration 0.1 mg/ml), 47.3 ± 2.9% in assay [1] (sample concentration 0.3 mg/ml), 58.0 ± 3.2% in assay [1] (sample concentration 1.0 mg/ml) and “about 60%” in assay [1] (setting [3]). Also, the “survival rate compared with peptide B (comparative example)” value in assay [1] (serum-deprived, 5 days) is “higher than that with peptide B”. For the same molecule, the “OD 595 nm Average ± Standard deviation (n = 4)” value is 0.48 ± 0.01 in assay [2] (sample concentration 0.1 mg/ml), 0.80 ± 0.02 in assay [2] (sample concentration 0.3 mg/ml), 0.92 ± 0.02 in assay [2] (sample concentration 1.0 mg/ml) and “about 0.9” in assay [2] (setting [3]). The “cell growth-promoting activity compared with peptide B (comparative example)” value in assay [2] (serum-deprived, 9 days) was “higher than that with peptide B”.

B1: Peptide B: peptide having the amino acid sequence of SEQ ID NO: 3, 2 repeats of the 38 amino acid sequence contained in natural sericin (WO 02/086133) (protein)
chain: SSTGSSSNTDSNSNSAGSSTSGGSSTYGYSSNSRDGSVSSTGSSSNTDSNSNSAGSSTSGGSSTYGYSSNSRDGSV
modifications: Peptide derived from sericin
With B1, in assay [1] (sample concentration 0.3 mg/ml), the “Survival rate (%) Average ± Standard deviation (n = 4)” value worked out at 46.1 ± 2.2%. Further, in assay [2] (sample concentration 0.3 mg/ml), the “OD 595 nm Average ± Standard deviation (n = 4)” value stood at 0.72 ± 0.03.
